*1 amine or outer side, *2 acyl side, *3 side chain or, on linkers, in order; H or OH if unused. Where a SMILES comes first, the peptide text is derived from it. Bridges are numbered along the chain shown (N, C = ends). [ ]: non-standard residue; d: D form. The star is where a group is joined. ξ: configuration not given here. Phe(4-COOH) = N[C@@H](Cc1ccc(C(=O)O)cc1)C(=O)O; Bip = N[C@@H](Cc1ccc(-c2ccccc2)cc1)C(=O)O; NH(CH2)14COOH = O=C(O)CCCCCCCCCCCCCCN*; Phe(3-Me) = Cc1cccc(C[C@H](N)C(=O)O)c1; γGlu = O=C(O)[C@H](CCC(=O)[*:2])N[*:1]; βAsp = O=C(O)[C@H](CC(=O)[*:2])N[*:1]; NH(CH2)12COOH = O=C(O)CCCCCCCCCCCCN*; aIle = CC[C@@H](C)[C@H](N)C(=O)O; hArg = N=C(N)NCCCC[C@H](N)C(=O)O; 4Pal = N[C@@H](Cc1ccncc1)C(=O)O; Cha = N[C@@H](CC1CCCCC1)C(=O)O; Ile(3ξ) = CCC(C)[C@H](N)C(=O)O; Thr(3ξ) = CC(O)[C@H](N)C(=O)O; 12Ado = NCCCCCCCCCCCC(=O)O; Carboxymethyl = O=C(O)C*; NMeA = CN[C@@H](C)C(=O)O; Nle = CCCC[C@H](N)C(=O)O; Orn = NCCC[C@H](N)C(=O)O; dDap = NC[C@@H](N)C(=O)O; Aun = NCCCCCCCCCCC(=O)O; Dab = NCC[C@H](N)C(=O)O; AEEA = NCCOCCOCC(=O)O
Target: T1, PD-1/PD-L1 interaction (PE-labeled human PD-L1-Ig binding to Jurkat cell line over-expressing human PD-1) (Homo sapiens, UniProt Q15116)
T1 construct: expressed in transfected cells; host or cells: Jurkat
T1 sequence (Q15116 25-288): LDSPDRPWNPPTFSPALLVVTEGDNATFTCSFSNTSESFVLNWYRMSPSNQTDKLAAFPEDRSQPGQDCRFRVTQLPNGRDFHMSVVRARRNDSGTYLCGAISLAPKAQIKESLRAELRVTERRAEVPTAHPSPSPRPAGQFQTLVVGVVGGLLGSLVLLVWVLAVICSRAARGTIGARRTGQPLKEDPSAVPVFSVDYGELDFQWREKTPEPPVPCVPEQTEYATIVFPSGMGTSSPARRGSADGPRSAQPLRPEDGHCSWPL
Test: Jurkat-PD-1 Cell Binding High-Content Screening Assay (CBA)
Conditions: Jurkat-hPD-1 cells, PE-labeled PD-L1-Ig 20 nM final; read-out: Jurkat HPD1 PDL1 IC50
In short: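 Binding of 20 nM (final) PE-tagged PD-L1-Ig to compound-pretreated Jurkat-hPD-1 cells was measured by high-content imaging after 1 h. Pretreatment ran 2 h at 37 °C in DMEM with 10% fetal calf serum.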

IC50	Compound
223 nM	CC(C)C[C@@H]1NC(=O)[C@H](Cc2c[nH]c3ccccc23)NC(=O)[C@H](CC(=O)O)NC(=O)[C@H](Cc2ccc(C(=O)O)cc2)NC(=O)[C@H](C(C)O)NC(=O)CSC[C@@H](C(=O)N[C@@H](C)C(=O)N[C@@H](CCN)C(=O)NCCCCCCCCCCCCCCC(=O)O)NC(=O)[C@H](CO)NC(=O)[C@H](C(C)C)NC(=O)[C@H](CC2CCCCC2)NC(=O)[C@H](CCN)NC(=O)[C@@H](CC(C)C)NC(=O)[C@H](C)N(C)C(=O)[C@H](C(C)C)NC(=O)[C@H](Cc2ccc(-c3ccccc3)cc2)NC1=O (stereo partly drawn) [Example 2005] ({CH2CO}-[Thr(3ξ)][Phe(4-COOH)]DWL[Bip]V[NMeA][dL][Dab][Cha]VSCA[Dab]-{NH(CH2)14COOH}; thioether N-14)
88.3 nM	CCCC[C@@H]1NC(=O)CSC[C@@H](C(=O)N[C@@H](CCN)C(=O)NCCOCCOCC(=O)N[C@@H](CCC(=O)NCCOCCOCC(=O)NCCCCCCCCCCCCC(=O)O)C(=O)O)NC(=O)[C@H](CCC(=O)O)NC(=O)[C@H](C(C)C)NC(=O)[C@H](CC2CCCCC2)NC(=O)[C@H](CCN)NC(=O)[C@@H](CC(C)C)NC(=O)[C@H](C)N(C)C(=O)[C@H](Cc2ccc(OCC(=O)O)cc2)NC(=O)[C@H](Cc2ccc(-c3ccccc3)cc2)NC(=O)[C@H](Cc2ccc(OCC(=O)O)cc2)NC(=O)[C@H](Cc2cccc(C)c2)NC(=O)[C@H](CC(=O)O)NC(=O)[C@H](Cc2ccc(OCC(=O)O)cc2)NC1=O [Example 2011] ({CH2CO}-[Nle]Y(Carboxymethyl)D[Phe(3-Me)]Y(Carboxymethyl)[Bip]Y(Carboxymethyl)[NMeA][dL][Dab][Cha]VEC[Dab][AEEA][γGlu][AEEA]-{NH(CH2)12COOH}; thioether N-14)
9.4 nM	CC[C@@H](C)[C@@H]1NC(=O)[C@H](Cc2ccc(-c3ccccc3)cc2)NC(=O)[C@H](C(C)C)NC(=O)[C@H](Cc2c[nH]c3ccccc23)NC(=O)[C@H](CC(=O)O)NC(=O)[C@H](Cc2ccc(OCC(=O)O)cc2)NC(=O)[C@H](Cc2ccncc2)NC(=O)CSC[C@@H](C(=O)N[C@H](CC(N)=O)C(=O)NCCOCCOCC(=O)N[C@@H](CCC(=O)NCCOCCOCC(=O)N[C@@H](CCC(=O)NCCOCCOCC(=O)N[C@@H](CCCN)C(=O)NCCCCCCCCCCC(=O)O)C(=O)O)C(=O)O)NC(=O)[C@H](CO)NC(=O)[C@H](C(C)C)NC(=O)[C@H](CC2CCCCC2)NC(=O)[C@H](CCN)NC(=O)[C@@H](CC(C)C)NC(=O)[C@H](C)N(C)C1=O [Example 2015] ({CH2CO}-[4Pal]Y(Carboxymethyl)DWV[Bip][aIle][NMeA][dL][Dab][Cha]VSC[dN][AEEA][γGlu][AEEA][γGlu][AEEA][Orn][Aun]-OH; thioether N-14)
24.3 nM	CC[C@@H](C)[C@@H]1NC(=O)[C@H](Cc2ccc(-c3ccccc3)cc2)NC(=O)[C@H](C(C)C)NC(=O)[C@H](Cc2c[nH]c3ccccc23)NC(=O)[C@H](CC(=O)O)NC(=O)[C@H](Cc2ccc(OCC(=O)O)cc2)NC(=O)[C@H](Cc2ccncc2)NC(=O)CSC[C@@H](C(=O)N[C@H](CC(N)=O)C(=O)NCCOCCOCC(=O)N[C@@H](CCC(=O)NCCOCCOCC(=O)N[C@@H](CCC(=O)NCCOCCOCC(=O)N[C@@H](CCCN)C(=O)NCCCCCCCCCCC(=O)O)C(=O)O)C(=O)O)NC(=O)[C@H](CO)NC(=O)[C@H](C(C)C)NC(=O)[C@H](CC2CCCCC2)NC(=O)[C@H](CC(N)=O)NC(=O)[C@@H](CC(C)C)NC(=O)[C@H](C)N(C)C1=O [Example 2017] ({CH2CO}-[4Pal]Y(Carboxymethyl)DWV[Bip][aIle][NMeA][dL]N[Cha]VSC[dN][AEEA][γGlu][AEEA][γGlu][AEEA][Orn][Aun]-OH; thioether N-14)

Further lines, the molecule ahead of its results:

Compound	IC50
CCC(C)[C@@H]1NC(=O)[C@H](Cc2ccc(-c3ccccc3)cc2)NC(=O)[C@H](C(C)C)NC(=O)[C@H](Cc2c[nH]c3ccccc23)NC(=O)[C@H](CC(=O)O)NC(=O)[C@H](Cc2ccc(OCC(=O)O)cc2)NC(=O)[C@H](C(C)O)NC(=O)CSC[C@@H](C(=O)N[C@@H](C)C(=O)NCCOCCOCC(=O)N[C@@H](CCC(=O)NCCOCCOCC(=O)N[C@@H](CCC(=O)NCCOCCOCC(=O)N[C@@H](CCCCN)C(=O)NCCCCCCCCCCCCC(=O)O)C(=O)O)C(=O)O)NC(=O)[C@H](C(C)O)NC(=O)[C@H](C(C)C)NC(=O)[C@H](CC2CCCCC2)NC(=O)[C@H](CCN)NC(=O)[C@@H](CC(C)C)NC(=O)[C@H](C)N(C)C1=O (stereo partly drawn) [Example 2009] ({CH2CO}-[Thr(3ξ)]Y(Carboxymethyl)DWV[Bip][Ile(3ξ)][NMeA][dL][Dab][Cha]V[Thr(3ξ)]CA[AEEA][γGlu][AEEA][γGlu][AEEA]K-{NH(CH2)12COOH}; thioether N-14)	58.3 nM
CCC(C)[C@@H]1NC(=O)[C@H](Cc2ccc(-c3ccccc3)cc2)NC(=O)[C@H](C(C)C)NC(=O)[C@H](Cc2c[nH]c3ccccc23)NC(=O)[C@H](CC(=O)O)NC(=O)[C@H](Cc2ccc(OCC(=O)O)cc2)NC(=O)[C@H](C(C)O)NC(=O)CSC[C@@H](C(=O)N[C@@H](C)C(=O)NCCOCCOCC(=O)N[C@@H](CCC(=O)NCCOCCOCC(=O)N[C@@H](CCC(=O)NCCOCCOCC(=O)N[C@@H](CCCN)C(=O)NCCCCCCCCCCCC(=O)O)C(=O)O)C(=O)O)NC(=O)[C@H](C(C)O)NC(=O)[C@H](C(C)C)NC(=O)[C@H](CC2CCCCC2)NC(=O)[C@H](CCN)NC(=O)[C@@H](CC(C)C)NC(=O)[C@H](C)N(C)C1=O (stereo partly drawn) [Example 2010] ({CH2CO}-[Thr(3ξ)]Y(Carboxymethyl)DWV[Bip][Ile(3ξ)][NMeA][dL][Dab][Cha]V[Thr(3ξ)]CA[AEEA][γGlu][AEEA][γGlu][AEEA][Orn][12Ado]-OH; thioether N-14)	34.8 nM
CC(C)C[C@@H]1NC(=O)[C@H](Cc2c[nH]c3ccccc23)NC(=O)[C@H](CC(=O)O)NC(=O)[C@H](Cc2ccc(OCC(=O)O)cc2)NC(=O)[C@H](CCCCNC(=N)N)NC(=O)CSC[C@@H](C(=O)N[C@@H](CC(N)=O)C(=O)NCCOCCOCC(=O)N[C@@H](CC(=O)NCCCCCCCCCCC(=O)O)C(=O)O)NC(=O)[C@H](CO)NC(=O)[C@H](C(C)C)NC(=O)[C@H](CC(C)C)NC(=O)[C@H](CC(N)=O)NC(=O)[C@@H](CC(C)C)NC(=O)[C@H](C)N(C)C(=O)[C@H](C(C)C)NC(=O)[C@H](Cc2ccc(-c3ccccc3)cc2)NC1=O [Example 2012] ({CH2CO}-[hArg]Y(Carboxymethyl)DWL[Bip]V[NMeA][dL]NLVSCN[AEEA][βAsp][Aun]-OH; thioether N-14)	21 nM
CC[C@@H](C)[C@@H]1NC(=O)[C@H](Cc2ccc(-c3ccccc3)cc2)NC(=O)[C@H](C(C)C)NC(=O)[C@H](Cc2c[nH]c3ccccc23)NC(=O)[C@H](CC(=O)O)NC(=O)[C@H](Cc2ccc(OCC(=O)O)cc2)NC(=O)[C@H](Cc2ccncc2)NC(=O)CSC[C@@H](C(=O)N[C@H](CN)C(=O)NCCOCCOCC(=O)N[C@@H](CCC(=O)NCCOCCOCC(=O)N[C@@H](CCC(=O)NCCOCCOCC(=O)N[C@@H](CCCN)C(=O)NCCCCCCCCCCC(=O)O)C(=O)O)C(=O)O)NC(=O)[C@H](Cc2c[nH]cn2)NC(=O)[C@H](C(C)C)NC(=O)[C@H](CC2CCCCC2)NC(=O)[C@H](CC(N)=O)NC(=O)[C@@H](CC(C)C)NC(=O)[C@H](C)N(C)C1=O [Example 2013] ({CH2CO}-[4Pal]Y(Carboxymethyl)DWV[Bip][aIle][NMeA][dL]N[Cha]VHC[dDap][AEEA][γGlu][AEEA][γGlu][AEEA][Orn][Aun]-OH; thioether N-14)	74.1 nM
CC[C@@H](C)[C@@H]1NC(=O)[C@H](Cc2ccc(-c3ccccc3)cc2)NC(=O)[C@H](C(C)C)NC(=O)[C@H](Cc2c[nH]c3ccccc23)NC(=O)[C@H](CC(=O)O)NC(=O)[C@H](Cc2ccc(OCC(=O)O)cc2)NC(=O)[C@H](Cc2ccncc2)NC(=O)CSC[C@@H](C(=O)N[C@H](CN)C(=O)NCCOCCOCC(=O)N[C@@H](CCC(=O)NCCOCCOCC(=O)N[C@@H](CCC(=O)NCCOCCOCC(=O)N[C@@H](CCCN)C(=O)NCCCCCCCCCCC(=O)O)C(=O)O)C(=O)O)NC(=O)[C@H](CO)NC(=O)[C@H](C(C)C)NC(=O)[C@H](CC2CCCCC2)NC(=O)[C@H](CC(N)=O)NC(=O)[C@@H](CC(C)C)NC(=O)[C@H](C)N(C)C1=O [Example 2014] ({CH2CO}-[4Pal]Y(Carboxymethyl)DWV[Bip][aIle][NMeA][dL]N[Cha]VSC[dDap][AEEA][γGlu][AEEA][γGlu][AEEA][Orn][Aun]-OH; thioether N-14)	42.7 nM
CC[C@@H](C)[C@@H]1NC(=O)[C@H](Cc2ccc(-c3ccccc3)cc2)NC(=O)[C@H](C(C)C)NC(=O)[C@H](Cc2c[nH]c3ccccc23)NC(=O)[C@H](CC(=O)O)NC(=O)[C@H](Cc2ccc(OCC(=O)O)cc2)NC(=O)[C@H](Cc2ccncc2)NC(=O)CSC[C@@H](C(=O)N[C@H](C)C(=O)NCCOCCOCC(=O)N[C@@H](CCC(=O)NCCOCCOCC(=O)N[C@@H](CCC(=O)NCCOCCOCC(=O)N[C@@H](CCCN)C(=O)NCCCCCCCCCCC(=O)O)C(=O)O)C(=O)O)NC(=O)[C@H](CO)NC(=O)[C@H](C(C)C)NC(=O)[C@H](CC2CCCCC2)NC(=O)[C@H](CC(N)=O)NC(=O)[C@@H](CC(C)C)NC(=O)[C@H](C)N(C)C1=O [Example 2016] ({CH2CO}-[4Pal]Y(Carboxymethyl)DWV[Bip][aIle][NMeA][dL]N[Cha]VSC[dA][AEEA][γGlu][AEEA][γGlu][AEEA][Orn][Aun]-OH; thioether N-14)	38.8 nM
CC[C@@H](C)[C@@H]1NC(=O)[C@H](Cc2ccc(-c3ccccc3)cc2)NC(=O)[C@H](C(C)C)NC(=O)[C@H](Cc2c[nH]c3ccccc23)NC(=O)[C@H](CC(=O)O)NC(=O)[C@H](Cc2ccc(C(=O)O)cc2)NC(=O)[C@H](Cc2ccc(OCC(=O)O)cc2)NC(=O)CSC[C@@H](C(=O)N[C@H](CN)C(=O)NCCOCCOCC(=O)N[C@@H](CCC(=O)NCCOCCOCC(=O)N[C@@H](CCC(=O)NCCOCCOCC(=O)N[C@@H](CCCN)C(=O)NCCCCCCCCCCC(=O)O)C(=O)O)C(=O)O)NC(=O)[C@H](CO)NC(=O)[C@H](C(C)C)NC(=O)[C@H](CC2CCCCC2)NC(=O)[C@H](CC(N)=O)NC(=O)[C@@H](CC(C)C)NC(=O)[C@H](C)N(C)C1=O [Example 2018] ({CH2CO}-Y(Carboxymethyl)[Phe(4-COOH)]DWV[Bip][aIle][NMeA][dL]N[Cha]VSC[dDap][AEEA][γGlu][AEEA][γGlu][AEEA][Orn][Aun]-OH; thioether N-14)	73.7 nM

Reference: patent US20260070945A1, “MACROCYCLIC IMMUNOMODULATORS” (Bristol-Myers Squibb Company, priority 2022, published 2026)
